Measured values taken from patent US11066392B2, “Inhibitors of indoleamine 2,3-dioxygenase and methods of their use” (BRISTOL-MYERS SQUIBB COMPANY, priority 2017, dated 2021).
Read-outs that look alike come from different tables or passages of the source.

What was measured:
human IDO1 = target: T1, human IDO1 (Homo sapiens, UniProt P14902); test: HEK293 cell-based indoleamine 2,3-dioxygenase (IDO) assay; conditions: human IDO1/HEK293 cells
T1 construct: expressed in transfected cells
Description: Assessment of inhibitor activity in HEK293 cell-based indoleamine 2,3-dioxygenase (IDO) assay.
HEK293 cells were transfected with a pCDNA-based mammalian expression vector harboring human IDO1 cDNA (NM 002164.2) by electroporation. They were cultured in medium (DMEM with 10% FBS) containing 1 mg/ml G418 for two weeks. Clones of HEK293 cells that stably expressed human IDO1 protein were selected and expanded for IDO inhibition assay.
The human IDO1/HEK293 cells were seeded at 10,000 cells per 50 μL per well with RPMI/phenol red free media contains 10% FBS in a 384-well black wall clear bottom tissue culture plate (Matrix Technologies LLC) 100 nL of certain concentration of compound was then added to each well using ECHO liquid handling systems. The cells were incubated for 20 hours in 37° C. incubator with 5% CO2.
The compound treatments were stopped by adding trichloroacetic acid (Sigma-Aldrich) to a final concentration at 0.2%. The cell plate was further incubated at 50° C. for 30 minute. The equal volume supernatant (20 μL) and 0.2% (w/v) Ehrlich reagent (4-dimethylaminobenzaldehyde, Sigma-Aldrich) in glacial acetic acid were mixed in a new clear bottom 384-well plate. This plate was then incubated at room temperature for 30 minute. The absorbance at 490 nm was measured on Envision plate reader.
Compound IC50 values were calculated using the counts of 500 nM of a reference standard treatment as one hundred percent inhibition, and counts of no compound but DMSO treatment as zero percent inhibition.
Activity for compounds described herein is provided in Table 1, wherein potency levels are provided as follows: (Potency: IDO IC50: A<0.01 μM; B<0.1 μM; C<10 μM)

[1] = target: indoleamine 2,3-dioxygenase (IDO) (Homo sapiens, UniProt P14902); test: HeLa cell-based indoleamine 2,3-dioxygenase (IDO) assay (kynurenine production, IFNγ-stimulated); conditions: HeLa cells
[2] = potency class, read-out: Patent Potency Hela IC50 A < 10 nM, B > 10 nM, C > 100 nM
[3] = 20 hours incubation, read-out: IDO1 HEK Human IC50
[4] = IFNγ 25 ng/mL, 48 hour incubation, read-out: IDO Hela IC50

T1 sequence (P14902 whole entry): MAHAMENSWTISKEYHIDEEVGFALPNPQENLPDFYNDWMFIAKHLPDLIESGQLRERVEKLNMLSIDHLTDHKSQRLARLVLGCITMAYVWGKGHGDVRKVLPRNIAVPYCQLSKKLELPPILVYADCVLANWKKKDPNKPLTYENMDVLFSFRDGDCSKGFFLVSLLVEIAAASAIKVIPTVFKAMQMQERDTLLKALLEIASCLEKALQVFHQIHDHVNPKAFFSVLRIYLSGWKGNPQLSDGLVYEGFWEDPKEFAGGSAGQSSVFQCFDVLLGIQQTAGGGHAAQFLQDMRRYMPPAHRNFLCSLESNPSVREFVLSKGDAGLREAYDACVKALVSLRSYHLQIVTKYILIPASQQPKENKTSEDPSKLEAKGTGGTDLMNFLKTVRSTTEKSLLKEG
indoleamine 2,3-dioxygenase (IDO), sequence (P14902 whole entry): as above

| SMILES | IC50 (human IDO1; potency class, read-out: Patent Potency HEK IC50 A < 10 nM, B > 10 nM, C > 100 nM) | IC50 [1, 2] | IC50 (human IDO1; [3]) | IC50 [1, 4] |
| --- | --- | --- | --- | --- |
| CC[C@@H](NC(=O)c1ccc(OC)nc1)[C@H]1CC[C@@H](c2ccnc3ccc(F)cc32)CC1 (single isomer, unassigned) [Example 10b, N-(1-(4-(6-Fluoroquinolin-4-yl)cyclohexyl)propyl)-6-methoxynicotinamide] | < 10 nM | < 10 nM |  |  |
| COc1ccc(C(=O)N[C@H](C)[C@H]2CC[C@@H](c3ccnc4ccc(F)cc43)CC2)cn1 [Example 2, N-((R)-1-((1s,4S)-4-(6-Fluoroquinolin-4-yl)cyclohexyl)ethyl)-6-methoxynicotinamide] |  | < 10 nM | 1 nM |  |
| C[C@@H](NC(=O)c1ccc(F)nc1)[C@H]1CC[C@@H](c2ccnc3ccc(F)cc32)CC1 [Example 7, 6-Fluoro-N-((R)-1-((1s,4S)-4-(6-fluoroquinolin-4-yl)cyclohexyl)ethyl)nicotinamide] |  |  | 5 nM | 10 nM |
| C[C@@H](NC(=O)c1ccncc1)[C@H]1CC[C@@H](c2ccnc3ccc(F)cc32)CC1 [Example 34, N-((R)-1-((cis)-4-(6-fluoroquinolin-4-yl)cyclohexyl)ethyl)isonicotinamide] |  |  | 13 nM | 10 nM |
| COCCOc1ccc(-c2ccc(C(=O)N[C@H](C)[C@H]3CC[C@@H](c4ccnc5ccc(F)cc54)CC3)cn2)cc1 [Example 6] |  |  | 488 nM |  |
| C[C@@H](NC(=O)c1ccc(-n2cccn2)nc1)[C@H]1CC[C@@H](c2ccnc3ccc(F)cc32)CC1 [Example 4, N-((R)-1-((1s,4S)-4-(6-Fluoroquinolin-4-yl)cyclohexyl)ethyl)-6-(1H-pyrazol-1-yl)nicotinamide] |  |  | 11 nM | 10 nM |
| CC[C@@H](NC(=O)c1ccc(OC)nc1)[C@H]1CC[C@@H](c2ccnc3ccc(F)cc32)CC1 (single isomer, unassigned) [Example 10d, N-(1-(4-(6-Fluoroquinolin-4-yl)cyclohexyl)propyl)-6-methoxynicotinamide] |  |  | 37 nM |  |
| C[C@@H](NC(=O)c1ccc(Cl)nc1)[C@H]1CC[C@@H](c2ccnc3ccc(F)cc32)CC1 [Example 5, 6-Chloro-N-((R)-1-((1s,4S)-4-(6-fluoroquinolin-4-yl)cyclohexyl)ethyl)nicotinamide] |  | < 10 nM | 10 nM |  |
| CC[C@@H](NC(=O)c1ccc(OC)nc1)[C@H]1CC[C@@H](c2ccnc3ccc(F)cc32)CC1 (single isomer, unassigned) [Example 10c, N-(1-(4-(6-Fluoroquinolin-4-yl)cyclohexyl)propyl)-6-methoxynicotinamide] |  |  | 55 nM |  |
| Cc1ncc(C(=O)N[C@H](C)[C@H]2CC[C@@H](c3ccnc4ccc(F)cc43)CC2)cn1 [Example 9, N-((R)-1-((1s,4S)-4-(6-Fluoroquinolin-4-yl)cyclohexyl)ethyl)-2-methylpyrimidine-5-carboxamide] |  |  | 28 nM |  |
| C[C@@H](NC(=O)c1cncnc1)[C@H]1CC[C@@H](c2ccnc3ccc(F)cc32)CC1 [Example 36, N-((R)-1-((cis)-4-(6-fluoroquinolin-4-yl)cyclohexyl)ethyl)pyrimidine-5-carboxamide] |  |  | 39 nM | 30 nM |
| C[C@@H](NC(=O)c1ccc(O)nc1)[C@H]1CC[C@@H](c2ccnc3ccc(F)cc32)CC1 [Example 3, N-((R)-1-((1s,4S)-4-(6-Fluoroquinolin-4-yl)cyclohexyl)ethyl)-6-hydroxynicotinamide] |  |  | 252 nM |  |
| C[C@@H](NC(=O)c1cnccn1)[C@H]1CC[C@@H](c2ccnc3ccc(F)cc32)CC1 [Example 35, N-((R)-1-((cis)-4-(6-fluoroquinolin-4-yl)cyclohexyl)ethyl)pyrazine-2-carboxamide] |  |  | 22 nM | 10 nM |
| COc1ncc(C(=O)N[C@H](C)[C@H]2CC[C@@H](c3ccnc4ccc(F)cc43)CC2)cn1 [Example 8, N-((R)-1-((1s,4S)-4-(6-Fluoroquinolin-4-yl)cyclohexyl)ethyl)-2-methoxypyrimidine-5-carboxamide] |  |  | 5 nM | 10 nM |
| COc1ccc(-c2ccc(C(=O)N[C@H](C)[C@H]3CC[C@@H](c4ccnc5ccc(F)cc54)CC3)cn2)cn1 [Example 1, N—((R)-1-((1s,4s)-4-(6-Fluoroquinolin-4-yl)cyclohexyl)ethyl)-6′-methoxy-2,3′-bipyridine-5-carboxamide] |  |  | 56 nM | 30 nM |
| CC[C@@H](NC(=O)c1ccc(OC)nc1)[C@H]1CC[C@@H](c2ccnc3ccc(F)cc32)CC1 (single isomer, unassigned) [Example 10a, N-(1-(4-(6-Fluoroquinolin-4-yl)cyclohexyl)propyl)-6-methoxynicotinamide] |  |  | 224 nM |  |
| C[C@@H](NC(=O)c1cccnc1)[C@H]1CC[C@@H](c2ccnc3ccc(F)cc32)CC1 [Example 33, N—((R)-1-((cis)-4-(6-fluoroquinolin-4-yl)cyclohexyl)ethyl)nicotinamide] |  |  | 10 nM | 10 nM |
| CCC(NC(=O)c1ccc(OC)nc1)C1CCC(c2cccc(C)n2)CC1 (single isomer, unassigned) [Example 46a, 6-methoxy-N-(1-(4-(6-methylpyridin-2-yl)cyclohexyl)propyl)nicotinamide] |  |  |  | 330 nM |
| CCC(NC(=O)c1ccc(OC)nc1)C1CCC(c2ccnc(OC)c2C(F)F)CC1 (single isomer, unassigned) [Example 24b, N-(1-((1s,4s)-4-(3-(Difluoromethyl)-2-methoxypyridin-4-yl)cyclohexyl)propyl)-6-methoxynicotinamide] |  |  |  | 900 nM |
| CC[C@@H](NC(=O)c1ccc(OC)nc1)[C@H]1CC[C@@H](c2ccnc3c(F)cccc32)CC1 (single isomer, unassigned) [Example 59a, N-(1-(4-(8-fluoroquinolin-4-yl)cyclohexyl)propyl)-6-methoxynicotinamide] |  |  |  | 100 nM |
